According to PMC6042686 (PLoS Biology, 2018):
Values joined by “and” are separate entries in the source; they are usually repeats but may differ in a detail not shown here. Equal entries are not always repeated. Where two headings read alike, the source gives them in different places.

How the values were obtained:
tsV1_M579V = tsV1_M579V (Tupaia chinensis, UniProt L8Y7X1, M598V); experiment: cell-based; design: species or system tree shrew
mV1_T551M [1] = molecular target: T1, mV1_T551M (Mus musculus, UniProt Q704Y3, T551M); assay type: cell-based
T1 construct: expressed in transfected cells; host or cells: HEK293T (patch clamp); HEK293 (calcium imaging)

BALB/c mice [2] = conditions: in vivo; for Change of food intake when the compound is added to the food: mouse
mV1_T551M [3] = molecular target: T1, mV1_T551M; experiment: cell-based
tsV1_M579S = tsV1_M579S (Tupaia chinensis, UniProt L8Y7X1, M598S); experiment: cell-based; design: species or system tree shrew
tsV1_M579A = tsV1_M579A (Tupaia chinensis, UniProt L8Y7X1, M598A); experiment: cell-based; design: species or system tree shrew
tree shrews = assay type: in vivo, tree shrew (Tupaia belangeri chinensis);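 as to Normalized food-intake, tree shrew (individual replicate): normalized to average intake of feed without capsaicin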
tree shrew TRPV1 (tsV1) = tree shrew TRPV1 (tsV1) (Tupaia chinensis, UniProt L8Y7X1); experiment: cell-based; conditions: for EC50: EC50 for activation of tsV1
polar bear TRPV1 (pV1) = polar bear TRPV1 (pV1) (Ursus maritimus, UniProt A0A384CG69); experiment: cell-based
tsV1_M579G = tsV1_M579G (Tupaia chinensis, UniProt L8Y7X1, M598G); experiment: cell-based; design: species or system tree shrew
tsV1_M579T = tsV1_M579T (Tupaia chinensis, UniProt L8Y7X1, M598T); experiment: cell-based; assay type: cell-based, tree shrew
mouse TRPV1 (mV1) = molecular target: T2, mouse TRPV1 (mV1) (Mus musculus, UniProt Q704Y3); experiment: cell-based; conditions: EC50 for activation of mV1
T2 construct: expressed in transfected cells; host or cells: HEK293T

human TRPV1 (hV1) = molecular target: T3, human TRPV1 (hV1) (Homo sapiens, UniProt Q8NER1); experiment: cell-based
T3 construct: expressed in transfected cells; host or cells: HEK293T

BALB/c mice [4] = conditions: in vivo
mouse paw tissue = conditions: in vivo
tree shrew = conditions: in vivo
tree shrew DRG neurons = assay type: cell-based
mV1_T551V = molecular target: T4, mV1_T551V (Mus musculus, UniProt Q704Y3, T551V); experiment: cell-based
T4 construct: expressed in transfected cells; host or cells: HEK293T
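For Normalized food-intake, mouse (individual replicate) in this document: normalized to average intake of feed without capsaicin.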

T1 sequence (Q704Y3 whole entry T551M): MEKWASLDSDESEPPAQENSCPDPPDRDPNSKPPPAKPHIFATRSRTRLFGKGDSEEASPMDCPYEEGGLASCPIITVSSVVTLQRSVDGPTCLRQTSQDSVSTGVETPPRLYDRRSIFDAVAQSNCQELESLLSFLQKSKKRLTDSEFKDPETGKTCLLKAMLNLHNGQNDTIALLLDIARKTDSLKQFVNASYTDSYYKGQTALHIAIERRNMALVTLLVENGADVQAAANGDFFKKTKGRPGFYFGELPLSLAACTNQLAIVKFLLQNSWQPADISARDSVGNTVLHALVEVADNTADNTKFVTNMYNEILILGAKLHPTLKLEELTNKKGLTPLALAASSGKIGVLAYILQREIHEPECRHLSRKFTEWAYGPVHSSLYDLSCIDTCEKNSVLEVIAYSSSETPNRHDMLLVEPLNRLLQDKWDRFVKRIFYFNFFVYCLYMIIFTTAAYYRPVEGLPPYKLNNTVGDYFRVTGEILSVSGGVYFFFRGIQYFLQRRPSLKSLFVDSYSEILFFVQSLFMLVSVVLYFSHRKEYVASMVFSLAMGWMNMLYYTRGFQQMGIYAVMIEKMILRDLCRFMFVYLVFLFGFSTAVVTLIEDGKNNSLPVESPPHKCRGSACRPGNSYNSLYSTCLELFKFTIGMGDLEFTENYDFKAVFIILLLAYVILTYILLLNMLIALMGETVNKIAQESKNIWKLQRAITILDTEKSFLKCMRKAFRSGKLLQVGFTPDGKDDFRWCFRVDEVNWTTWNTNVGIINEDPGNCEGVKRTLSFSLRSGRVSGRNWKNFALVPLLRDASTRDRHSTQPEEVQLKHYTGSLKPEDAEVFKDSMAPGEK
T2 sequence (Q704Y3 whole entry): as the sequence (Q704Y3 whole entry T551M) above, with M551T counted along it
tree shrew TRPV1 (tsV1), sequence (L8Y7X1 1-828): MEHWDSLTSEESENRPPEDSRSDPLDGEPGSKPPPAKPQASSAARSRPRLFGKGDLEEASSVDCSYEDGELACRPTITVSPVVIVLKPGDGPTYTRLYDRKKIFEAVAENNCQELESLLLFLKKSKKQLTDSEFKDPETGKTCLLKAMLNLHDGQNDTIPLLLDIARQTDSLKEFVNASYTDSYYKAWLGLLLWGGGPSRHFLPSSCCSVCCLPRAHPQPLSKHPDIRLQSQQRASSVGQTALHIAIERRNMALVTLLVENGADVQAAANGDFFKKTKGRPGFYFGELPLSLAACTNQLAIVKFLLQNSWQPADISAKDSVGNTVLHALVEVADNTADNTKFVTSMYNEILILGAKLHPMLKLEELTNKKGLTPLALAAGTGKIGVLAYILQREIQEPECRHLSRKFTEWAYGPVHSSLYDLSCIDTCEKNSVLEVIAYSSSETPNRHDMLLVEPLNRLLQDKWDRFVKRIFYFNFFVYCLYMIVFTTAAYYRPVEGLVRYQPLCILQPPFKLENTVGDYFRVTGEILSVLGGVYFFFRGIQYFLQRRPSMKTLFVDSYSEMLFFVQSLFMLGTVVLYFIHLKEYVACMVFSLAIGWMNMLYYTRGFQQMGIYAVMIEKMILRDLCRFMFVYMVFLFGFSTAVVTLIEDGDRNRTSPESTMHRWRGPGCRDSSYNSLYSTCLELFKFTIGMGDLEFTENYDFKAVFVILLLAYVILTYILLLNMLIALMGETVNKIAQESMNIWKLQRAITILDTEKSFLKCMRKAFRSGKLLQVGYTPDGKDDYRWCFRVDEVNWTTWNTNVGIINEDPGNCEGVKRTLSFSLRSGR
tsV1_M579T, sequence (L8Y7X1 1-828 M598T): as the sequence (L8Y7X1 1-828) above, with M598T counted along it
tsV1_M579S, sequence (L8Y7X1 1-828 M598S): as the sequence (L8Y7X1 1-828) above, with M598S counted along it
polar bear TRPV1 (pV1), sequence (A0A384CG69 1-841): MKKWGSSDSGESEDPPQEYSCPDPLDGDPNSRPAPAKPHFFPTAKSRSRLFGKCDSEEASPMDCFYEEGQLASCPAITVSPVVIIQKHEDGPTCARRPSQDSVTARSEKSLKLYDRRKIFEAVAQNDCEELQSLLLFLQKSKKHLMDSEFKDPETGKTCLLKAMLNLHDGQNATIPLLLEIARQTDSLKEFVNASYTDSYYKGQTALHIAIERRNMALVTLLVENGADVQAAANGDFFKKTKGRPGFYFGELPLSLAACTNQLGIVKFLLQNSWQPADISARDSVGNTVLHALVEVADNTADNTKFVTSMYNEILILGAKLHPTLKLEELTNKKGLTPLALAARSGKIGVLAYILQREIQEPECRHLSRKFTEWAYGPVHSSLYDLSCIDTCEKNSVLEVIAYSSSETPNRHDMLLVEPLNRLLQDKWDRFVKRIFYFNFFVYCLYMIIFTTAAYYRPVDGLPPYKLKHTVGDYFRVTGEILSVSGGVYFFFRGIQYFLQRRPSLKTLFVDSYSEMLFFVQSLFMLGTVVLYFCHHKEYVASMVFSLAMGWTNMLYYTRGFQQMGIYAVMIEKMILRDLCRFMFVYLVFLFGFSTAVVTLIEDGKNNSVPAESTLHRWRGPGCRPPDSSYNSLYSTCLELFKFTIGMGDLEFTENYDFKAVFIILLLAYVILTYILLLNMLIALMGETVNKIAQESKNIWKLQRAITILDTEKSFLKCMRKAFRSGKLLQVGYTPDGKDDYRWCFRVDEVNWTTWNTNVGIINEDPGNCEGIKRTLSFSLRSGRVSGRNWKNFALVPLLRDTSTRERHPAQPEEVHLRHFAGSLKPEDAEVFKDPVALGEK
tsV1_M579V, sequence (L8Y7X1 1-828 M598V): as the sequence (L8Y7X1 1-828) above, with M598V counted along it
T3 sequence (Q8NER1 whole entry): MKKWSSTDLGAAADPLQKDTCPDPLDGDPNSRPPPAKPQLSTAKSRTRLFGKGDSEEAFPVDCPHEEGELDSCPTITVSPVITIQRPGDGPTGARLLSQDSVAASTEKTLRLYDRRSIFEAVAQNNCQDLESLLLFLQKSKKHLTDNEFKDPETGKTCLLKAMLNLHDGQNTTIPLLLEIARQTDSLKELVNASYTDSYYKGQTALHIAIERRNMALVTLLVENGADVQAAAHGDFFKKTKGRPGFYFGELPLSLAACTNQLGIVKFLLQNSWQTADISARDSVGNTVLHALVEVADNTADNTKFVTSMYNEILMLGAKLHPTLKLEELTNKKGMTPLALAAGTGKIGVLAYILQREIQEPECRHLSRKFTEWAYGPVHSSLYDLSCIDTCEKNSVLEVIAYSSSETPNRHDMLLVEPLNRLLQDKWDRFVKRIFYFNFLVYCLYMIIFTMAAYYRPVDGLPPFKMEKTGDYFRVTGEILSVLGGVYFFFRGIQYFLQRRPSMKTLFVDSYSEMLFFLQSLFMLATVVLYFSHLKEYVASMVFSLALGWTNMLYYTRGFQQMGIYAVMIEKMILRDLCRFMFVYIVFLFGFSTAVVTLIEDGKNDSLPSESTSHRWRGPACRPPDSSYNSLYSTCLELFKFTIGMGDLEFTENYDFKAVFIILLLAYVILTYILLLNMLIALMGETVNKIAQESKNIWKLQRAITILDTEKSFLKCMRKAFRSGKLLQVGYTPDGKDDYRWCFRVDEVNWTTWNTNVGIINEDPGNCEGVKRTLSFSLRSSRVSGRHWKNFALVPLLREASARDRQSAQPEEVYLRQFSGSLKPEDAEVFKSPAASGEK
T4 sequence (Q704Y3 whole entry T551V): as the sequence (Q704Y3 whole entry T551M) above, with M551V counted along it
tsV1_M579G, sequence (L8Y7X1 1-828 M598G): as the sequence (L8Y7X1 1-828) above, with M598G counted along it
tsV1_M579A, sequence (L8Y7X1 1-828 M598A): as the sequence (L8Y7X1 1-828) above, with M598A counted along it

## CCCCC/C=C/C=C/C(=O)NCCc1ccc(O)c(OC)c1 [Cap2]
tsV1_M579V
  EC50: 830 µM
mV1_T551M [1]
  Calcium signal in mV1_T551M-expressing HEK293 cells: largely diminished calcium signal
BALB/c mice [2]
  Change of food intake when the compound is added to the food: significantly decreased
mV1_T551M [3]
  EC50: 151.4 ± 0.12 µM
tsV1_M579S
  EC50: 5.46 µM
  Shift of concentration-response curve relative to wild-type tsV1: large shifts to the left
tsV1_M579A
  EC50: 1070 µM
Tree shrews; in vivo
  Change of food intake when the compound is added to the food: slight increase
  Normalized food-intake, AVE_tree shrew: 1.13 and 1.269 and 1.38 and 1.28
Tree shrew TRPV1 (tsV1)
  EC50: 1900 µM and ~1900 µM
Tree shrew TRPV1 (tsV1); hek293t cells
  EC50 of tsV1 larger than the EC50 of mV1: approximately 2,500 fold
Polar bear TRPV1 (pV1)
  EC50: 0.87 ± 0.04 µM
tsV1_M579G
  EC50: 920 µM
tsV1_M579T
  EC50: 2.34 ± 0.26 µM
  Shift of concentration-response curve relative to wild-type tsV1: large shifts to the left
tsV1_M579T; hek293t cells
  Change in the EC50 on mutating the homologous site (mV1_T551M or tsV1_M579T): approximately 1,000 fold
  EC50 of tsV1_M579T lower than EC50 of wild-type tsV1: approximately 1,000 fold
Mouse TRPV1 (mV1)
  EC50: 0.74 ± 0.05 µM
Human TRPV1 (hV1)
  EC50: 5.73 ± 0.05 µM

## COc1cc(CNC(=O)CCCC/C=C/C(C)C)ccc1O [capsaicin]
BALB/c mice [2]
  Normalized food-intake, mouse (individual replicate): 0.359 and 0.496 and 0.524 and 0.168 and 0.264 and 0.288 and 0.063 and 0.143 and 0.169 and 0.008 and 0.009 and 0.007
  Change of food intake when the compound is added to the food: significantly reduced in a concentration-dependent manner
mV1_T551M [3]
  EC50: ~2.1 µM
BALB/c mice [4]
  paw licking after capsaicin (S1B Fig), mouse, single animals: 74.03 and 80.09 and 18.24 and 91.1 and 11.82 and 100.82 and 8.03 and 45.87 and 22.39 and 126.21
BALB/c mice [4]; mouse
  paw licking after capsaicin (S1B Fig), AVE_mouse: 55.056 and 60.664
Tree shrews; 24 hours, n = 3
  Normalized food-intake, AVE_tree shrew: 1.087 and 1.119 and 1.28 and 1.255
Tree shrews; in vivo
  Change of food intake when the compound is added to the food: no such change
  Normalized food-intake, tree shrew (individual replicate): 1.004 and 1.211 and 1.046 and 1.034 and 1.223 and 1.101 and 1.209 and 1.372 and 1.259 and 1.119 and 1.381 and 1.265
Mouse paw tissue
  Paw tissue histology (H&E) after hind paw injection: significantly increased
Tree shrew TRPV1 (tsV1)
  EC50: 5.2 ± 0.13 µM
Tree shrew
  Capsaicin-induced acute pain behavior (paw licking): absent
  paw licking after capsaicin (S1B Fig), AVE_tree shrew: 1.836 and 1.5525
  paw licking after capsaicin (S1B Fig), tree shrew, single animals: 3.34 and 1.67 and 2.84 and 0.95 and 1.47 and 1.89 and 1.46 and 0.74 and 2 and 2.07 and 2.32 and 2.01 and 1.28
Tree shrew DRG neurons
  Calcium response of DRG neurons: much weaker response
tsV1_M579T
  Change in the EC50 on mutating the homologous site (mV1_T551M or tsV1_M579T): approximately 10 fold
  EC50 of tsV1_M579T lower than EC50 of wild-type tsV1: approximately 50 fold
Mouse TRPV1 (mV1)
  EC50: 0.2 µM and ~0.2 µM
mV1_T551V
  EC50: ~1.5 µM

## CCCCC[C@H](O)CC(=O)CCc1ccc(O)c(OC)c1 [gingerol]
tsV1_M579T
  Change in the EC50 on mutating the homologous site (mV1_T551M or tsV1_M579T): approximately 6 fold

## O=C(/C=C/C=C/c1ccc2c(c1)OCO2)N1CCCCC1 [piperine]
tsV1_M579T; hek293t cells
  Change in the EC50 on mutating the homologous site (mV1_T551M or tsV1_M579T): approximately 2 fold

## CCCCC/C=C/C(=O)CCc1ccc(O)c(OC)c1 [shogaol]
tsV1_M579T; hek293t cells
  Change in the EC50 on mutating the homologous site (mV1_T551M or tsV1_M579T): approximately 10 fold
